Measured values from patent US20040103453A1, “Lipoxygenase genes, promoters, transit peptides and proteins thereof” (priority 2000, published 2004).
“Also recorded” adds a separate entry of the source.

Tests used:
[1] = test system: RCI-1 transcripts; assay: RNA gel blot (Northern) analysis of RCI-1 transcripts in treated rice leaves; type: in vivo, Oryza sativa cv. Kusabue; conditions: for RCI-1 transcript (mRNA) accumulation: RNA from chemically treated rice leaves, INA and BTH sprayed onto leaves, probenazole by soil drench
[2] = test system: RLL2 transcripts; assay: RNA gel blot probed with rice LOX cDNA RLL2; type: in vivo; conditions: RNA from treated rice plants
[3] = test system: lipoxygenase (LOX) enzyme activity in rice leaves; assay: LOX enzyme activity in BTH-treated rice leaves; type: in vivo, Oryza sativa cv. Kusabue; conditions: between 24 and 48 h after BTH treatment
[4] = test system: L-2 transcripts; assay: RNA gel blot probed with rice LOX cDNA L-2; type: in vivo; conditions: RNA from treated rice plants
[5] = test system: rice blast disease; conditions: treatment of rice; cited from earlier work
[6] = test system: lipoxygenase (LOX, linoleate:oxygen oxidoreductase, EC 1.13.11.12); conditions: treatment of rice; cited from earlier work
[7] = Photospectrometric lipoxygenase activity of recombinant RCI-1 enzyme extract; conditions: linoleic acid as substrate
Procedure: Production of recombinant RCI-1 protein is induced by addition of 1 mM IPTG (final concentration) to a 250 ml E. coli M15 culture grown to an OD600 of 1 and further incubation on a shaker overnight at 19° C. The cells are harvested by centrifugation (5000 g, 10 minutes) and resuspended in 5 ml lysis buffer (50 mM Na-phosphate buffer pH 7.5 containing 1 mg l-1 lysozyme). After a 30 minute incubation on ice, the lysate is centrifuged (12000 g, 15 minutes) and the pellet is transferred into a mortar and ground in extraction buffer (0.1 M K-phosphate buffer pH 7, 30 mg polyvinyl-poly-pyrrolidone, 1 mM EDTA). After centrifugation, the clear supernatant is used as an enzyme preparation for further biochemical analysis.
Lipoxygenase activity is measured at 30° C. photospectrometrically at 234 nm using linoleic acid as a substrate and 5-20 μl from the recombinant RCI-1 enzyme extract (Bohland et al. (1997) Plant Physiol. 114, 679-685). For determination of the pH optimum, different buffers with overlapping pH ranges (pH 4-6: 0.1 M Na-acetate; pH 6-8: 0.1 M Na-phosphate; pH 8-10: 0.1 M Tris-HCl) are used. The molar extinction coefficient of the reaction product, 2.5×10^7 cm^−1 mol^−1, is used for the calculation of the enzyme activity.

[8] = HPLC analysis of reaction products of recombinant RCI-1; conditions: linoleic acid or linolenic acid as substrate, 0.1 M Tris-HCl pH 8.8, 20 min, 30° C.
Procedure: Lipoxygenase activity is measured at 30° C. photospectrometrically at 234 nm using linoleic acid as a substrate and 5-20 μl from the recombinant RCI-1 enzyme extract (Bohland et al. (1997) Plant Physiol. 114, 679-685). For determination of the pH optimum, different buffers with overlapping pH ranges (pH 4-6: 0.1 M Na-acetate; pH 6-8: 0.1 M Na-phosphate; pH 8-10: 0.1 M Tris-HCl) are used. The molar extinction coefficient of the reaction product, 2.5×10^7 cm^−1 mol^−1, is used for the calculation of the enzyme activity. […] The products of the enzymatic activity of the RCI-1 protein are analyzed by HPLC (Bohland et al. (1997) Plant Physiol. 114, 679-685). Approximately 0.2 nkat enzyme activity obtained from recombinant RCI-1 protein is incubated with 50 μl substrate solution (10 μl of linoleic or α-linolenic acid, respectively; 20 μl ethanol, 20 μl H2O) in 2 ml 0.1 M Tris-HCl pH 8.8 for 20 min. at 30° C. The reaction is stopped by lowering the pH to 3.0 with diluted HCl, and the hydroperoxides are extracted with 1 ml of CHCl3 followed by two washes with water. […] Products are detected at 234 nm and standards are obtained from Biomol (Hamburg, Germany) or prepared from linoleic or α-linolenic acid by incubation with soybean lipoxygenase, respectively, as described (Bohland et al. (1997) Plant Physiol. 114, 679-685).

[9] = rice leaves treated with INA, time course, RNA gel blot

Molecule: CSC(=O)c1cccc2nnsc12 [BTH, benzo(1,2,3)thiadiazole-7-carbothioic acid S-methyl ester]
- RCI-1 transcript (mRNA) accumulation [1]: induces RCI1 transcript accumulation; also recorded: strong hybridization signal
- RLL2 transcript accumulation [2]: do not accumulate
- LOX enzymatic activity in rice leaves [3]: significant increase
- L-2 transcript accumulation [4]: do not accumulate

Molecule: O=C(O)c1cc(Cl)nc(Cl)c1 [INA, 2,6-dichloroisonicotinic acid]
- RCI-1 transcript (mRNA) accumulation [1]: strong hybridization signal
- time after treatment at which RCI-1 transcripts reach maximal levels [1, 9]: 24 to 48 h
- time after treatment at which RCI-1 transcripts start to accumulate [1, 9]: 8 h
- RLL2 transcript accumulation [2]: do not accumulate
- L-2 transcript accumulation [4]: do not accumulate

Molecule: N#CCNC(=O)c1ccnc(Cl)c1 [N-cyanomethyl-2-chloroisonicotinamid]
- resistance inducing activity against rice blast disease [5]: good resistance inducing activity
- induction of the enzyme lipoxygenase [6]: induced the enzyme lipoxygenase

Molecule: CC/C=C\C[C@H]1C(=O)CC[C@@H]1CC(=O)O [jasmonic acid]
- RCI-1 transcript levels ([1]; 7 to 12 h after spraying of a 1 mM solution onto rice leaves): strongly increase
- RCI-1 transcript (mRNA) accumulation [1]: strong hybridization signal

Molecule: C=CCOC1=NS(=O)(=O)c2ccccc21 [probenazole]
- RCI-1 transcript (mRNA) accumulation [1]: induces RCI1 transcript accumulation; also recorded: strong hybridization signal
- time course of RCI-1 mRNA accumulation ([1]; probenazole soil drench, compared with INA and BTH spraying): delayed time course
- RLL2 transcript accumulation [2]: do not accumulate
- L-2 transcript accumulation [4]: do not accumulate

B1: RCI-1: rice lipoxygenase protein of 922 amino acids (SEQ ID NO:7) encoded by RCI-1 cDNA, expressed recombinantly in E. coli (protein, listed as Oryza sativa)
chain: MLTATQTLAPAVLSRSHGAPSSFSSQPRRTAAAASRVSCTRVGALSEVVNGELVVGDQEQTTDDLLTRHKNVVADYTLSATVTVSLKQDDSTPQKVADMVNRDWLFLDFFSSHIEGMHTEPQLARYSHMDGKGSFIYEASFSIPSSLDAVGAVQVVNRYSSEVYISDIDVHLCGGRHQWTDITFHCNSWIDYNPNDQRFFFPLKSYLPSQTPRGVKNLRKEELRAIRGDGRGERKEWERIYDYDVYNDLGDPDNDPATRRPVLGGRGRPYPRRCRTGRRRCRTDPSSESPPAKDGAGIYVPRDEAFTERKAGAFATKKALSALSAFTTAQRVSGDRRRGFPSLAAIDALYEDGYKNRPSSSQQEADNLEGYFREVLQKQVKLLLKGEKEEFKEELRKVFKFQTPEIHDKDKLAWFRDEEFARQTLAGMNPLSIQLVRDTDFPIFSKLDEETYGPGDSLITKELIEEQINGVMTAEEAVEKKKLFMLDYHDVLLPFVHAVRELDDTTLYASRTLFFLTEDGTLRPIAIELTRPKSPNTPQWRQVFTPGSSVAASWLWQLAKTHVLAHDTGYHQLVSHWLRTHCCVEPYVIAANRRLSQMHPIYRLLHPHFRFTMEINAQARGMLINANGIIESAFAPGKLCMELSSAVYDKFWRFDMEALPADLIRRGMAIECEDGKLELTIEDYPYANDGLLIWDSIKEWVSDYVNHYYQLASDIHMDKELQGWWNEVRTKGHPDKEEGWPELNCHGSLVEVLTTIIWVASGHHAAVNFGQYPYAGYFPNRPTIARRNMPTEGQACSHDGMQPTFVEDPVRVLLDTFPSQYQTTLVLPVLNLLSSHSPGEEYMGTHAESAWMADREVRAAFGRFNERMMSIAEMIDCRNKDPERKNRQGPGVVPYVLLKPSYGDPKDMTSVMEMGIPNSISI
- LOX activity of crude E. coli extract ([7]; 30° C., 234 nm, control extracts no detectable LOX activity): increased LOX activity
- pH of maximal LOX activity ([7]; buffers pH 4-10): 8 to 9 pH
- reaction product (9S)-hydroperoxy-(10E,12Z,15Z) octadecatrienoic acid (9-HPOD) [8]: only detected in minor amounts
- reaction product (13S)-hydroperoxy-(9Z,11E,15Z)-octadecatrienoic acid (13-HPOD) [8]: predominant product
